Non-standard residues stand in square brackets, D forms with d. Residues, ends and D or L forms follow the SMILES beside them. *: point of attachment. Benzoyl(4-OPh) = O=C(c1ccc(Oc2ccccc2)cc1)*; Lys(Et2) = CCN(CC)CCCC[C@H](N)C(=O)O; d(aIle) = CC[C@H](C)[C@@H](N)C(=O)O; Gly(cPent) = N[C@H](C(=O)O)C1CCCC1; Nle = CCCC[C@H](N)C(=O)O; Cbz = O=C(OCc1ccccc1)*; NH(propargyl) = C#CCN*; CH2F = FC*
Tests used:
Peregrin (Homo sapiens) = target: T1, Peregrin (Homo sapiens) (UniProt P55201); conditions: Compound concentration 20.0 uM
T1 sequence (whole entry): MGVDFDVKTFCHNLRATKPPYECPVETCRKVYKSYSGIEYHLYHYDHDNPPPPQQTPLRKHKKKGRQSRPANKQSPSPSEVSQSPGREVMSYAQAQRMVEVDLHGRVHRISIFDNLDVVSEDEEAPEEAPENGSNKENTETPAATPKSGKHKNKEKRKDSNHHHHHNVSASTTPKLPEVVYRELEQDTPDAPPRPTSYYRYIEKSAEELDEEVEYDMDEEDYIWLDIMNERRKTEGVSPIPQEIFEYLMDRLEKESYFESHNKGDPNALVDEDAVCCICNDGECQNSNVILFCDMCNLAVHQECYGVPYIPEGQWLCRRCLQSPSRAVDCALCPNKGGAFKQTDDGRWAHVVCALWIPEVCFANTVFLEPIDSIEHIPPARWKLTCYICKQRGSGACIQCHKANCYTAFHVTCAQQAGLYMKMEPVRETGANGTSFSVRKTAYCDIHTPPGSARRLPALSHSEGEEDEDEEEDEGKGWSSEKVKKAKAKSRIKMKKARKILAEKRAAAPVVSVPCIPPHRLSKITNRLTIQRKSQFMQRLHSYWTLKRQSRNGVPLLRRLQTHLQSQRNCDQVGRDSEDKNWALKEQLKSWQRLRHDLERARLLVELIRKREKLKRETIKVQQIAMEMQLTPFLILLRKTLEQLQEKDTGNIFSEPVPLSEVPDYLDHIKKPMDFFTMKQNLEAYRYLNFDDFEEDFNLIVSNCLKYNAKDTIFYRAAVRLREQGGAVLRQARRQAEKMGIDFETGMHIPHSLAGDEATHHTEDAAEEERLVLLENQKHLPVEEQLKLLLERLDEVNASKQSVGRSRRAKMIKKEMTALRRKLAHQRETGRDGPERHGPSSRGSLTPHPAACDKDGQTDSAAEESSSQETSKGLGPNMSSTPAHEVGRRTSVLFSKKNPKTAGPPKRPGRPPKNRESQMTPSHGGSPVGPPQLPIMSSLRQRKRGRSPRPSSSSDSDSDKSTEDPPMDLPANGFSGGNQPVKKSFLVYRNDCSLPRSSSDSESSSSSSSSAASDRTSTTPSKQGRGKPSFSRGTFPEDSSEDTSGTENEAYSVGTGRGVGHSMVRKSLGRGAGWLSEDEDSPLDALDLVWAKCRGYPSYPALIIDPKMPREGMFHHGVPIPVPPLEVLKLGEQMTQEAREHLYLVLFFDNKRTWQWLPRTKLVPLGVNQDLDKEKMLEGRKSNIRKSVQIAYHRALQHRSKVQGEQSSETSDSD

[1] = target: Fibroblast growth factor receptor 2 (Homo sapiens) (UniProt P21802); conditions: Compound concentration 20.0 uM
Fibroblast growth factor receptor 2 (Homo sapiens), sequence (P21802 22-821 limits assumed): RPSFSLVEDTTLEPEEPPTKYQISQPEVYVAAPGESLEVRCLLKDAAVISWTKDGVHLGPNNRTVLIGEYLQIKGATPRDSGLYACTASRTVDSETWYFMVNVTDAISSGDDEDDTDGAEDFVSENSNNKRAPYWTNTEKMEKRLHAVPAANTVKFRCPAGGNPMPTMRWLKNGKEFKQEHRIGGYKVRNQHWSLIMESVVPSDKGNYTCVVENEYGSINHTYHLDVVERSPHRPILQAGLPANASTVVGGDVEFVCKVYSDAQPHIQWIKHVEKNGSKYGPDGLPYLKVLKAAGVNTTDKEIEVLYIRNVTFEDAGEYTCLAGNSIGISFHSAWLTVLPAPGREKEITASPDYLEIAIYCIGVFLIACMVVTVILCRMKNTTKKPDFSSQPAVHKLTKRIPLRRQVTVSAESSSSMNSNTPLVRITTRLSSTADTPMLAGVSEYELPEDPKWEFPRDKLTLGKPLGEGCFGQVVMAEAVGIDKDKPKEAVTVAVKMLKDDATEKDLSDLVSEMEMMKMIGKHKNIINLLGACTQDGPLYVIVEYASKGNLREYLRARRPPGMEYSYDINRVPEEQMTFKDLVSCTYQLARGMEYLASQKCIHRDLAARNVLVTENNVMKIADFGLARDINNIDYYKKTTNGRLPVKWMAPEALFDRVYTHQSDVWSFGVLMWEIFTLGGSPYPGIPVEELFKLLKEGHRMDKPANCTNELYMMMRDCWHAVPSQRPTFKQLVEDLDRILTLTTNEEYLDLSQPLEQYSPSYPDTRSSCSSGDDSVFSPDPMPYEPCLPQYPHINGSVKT
Description: Thermal Shift Assay. Domain: start/stop: T457-E768

SMILES | ΔTm (Peregrin (Homo sapiens)) [°C] | ΔTm [1] [°C] | ΔTm (Peregrin (Homo sapiens); tested as the 2H-labelled form) [°C] | ΔTm ([1]; tested as the 2H-labelled form) [°C]
CCc1nc2c(C)cc(N3CCN(CC(=O)N4CC(O)C4)CC3)cn2c1N(C)c1nc(-c2ccc(F)cc2)c(C#N)s1 | -0.12 | 0.26 |  | 
O=C1c2ccccc2C(=O)c2oc(-c3ccc(F)cc3)nc21 | -0.98 | 0.19 |  | 
CCS(=O)(=O)N1CC(CC#N)(n2cc(-c3ncnc4[nH]ccc34)cn2)C1 | -1.09 | 1.48 |  | 
Cc1cc(OCCCNCCC(N)=O)ccc1Cc1c(O[C@@H]2O[C@H](CO)[C@@H](O)[C@H](O)[C@H]2O)n[nH]c1C(C)C | 1.37 | 0.45 |  | 
CC(C)(Sc1ccncc1-c1ccc(C#N)c2ccccc12)C(=O)O | 0.05 | 0.42 |  | 
Cc1ncsc1-c1ccc(CNC(=O)[C@@H]2C[C@@H](O)CN2C(=O)[C@@H](NC(=O)COCCOCCOCCNC(=O)C[C@@H]2N=C(c3ccc(Cl)cc3)c3c(sc(C)c3C)-n3c(C)nnc32)C(C)(C)C)cc1 | -1.64 | 0.61 |  | 
COc1cc(O)cc(CN2CCc3c(cc(Cn4ccn(C)c4=N)cc3-c3ccc(F)cc3C)C2=O)c1 | -1.15 | -1.31 |  | 
COC(=O)CC[C@H](NC(=O)[C@H](Cc1c[nH]c2ccccc12)NC(=O)OCc1ccccc1)C(=O)N[C@@H](Cc1cnc[nH]1)C(=O)N[C@@H](CC(=O)OC)C(=O)CF (Cbz-WE(OMe)HD(OMe)-CH2F) | -1.05 | 0.1 |  | 
CC(C)(C)c1ccc(S(=O)(=O)NCc2ccc(C(=O)Nc3cccnc3)cc2)cc1 | -0.61 | -0.54 |  | 
COc1cc(Nc2ncc(F)c(Nc3ccc4c(n3)N(COP(=O)(O)O)C(=O)C(C)(C)O4)n2)cc(OC)c1OC | -0.81 | 4.69 |  | 
O=C(N1CCCCC1c1ccccc1)n1cc(-c2ccc(-c3cccc(CO)c3)cc2)nn1 (stereo unspecified) | -1.91 | -4.93 |  | 
CC(C)[C@@H]1NC(=O)[C@H](Cc2ccc(O)cc2)NC(=O)[C@@H](CC(=O)O)NC(=O)S[C@@H](C(=O)O)NC(=O)[C@H]([C@H](C)O)NC(=O)[C@H](Cc2ccc(O)cc2)NC(=O)[C@H](Cc2c[nH]c3ccccc23)NC(=O)[C@H](CCCNC(=N)N)NC(=O)[C@H](Cc2c[nH]c3ccccc23)NC(=O)[C@H](C)NC(=O)[C@H](CO)NC(=O)[C@H](CCCNC(=N)N)NC(=O)[C@H]([C@H](C)O)NC(=O)[C@H](CC(N)=O)NC(=O)[C@H](Cc2ccc(O)cc2)NC1=O | 1.38 | 0.32 |  | 
C#CCNC(=O)[C@H](CO)NC(=O)[C@H](CCCCN(CC)CC)NC(=O)[C@H](NC(=O)[C@@H](NC(=O)c1ccc(Oc2ccccc2)cc1)C1CCCC1)[C@@H](C)CC ({Benzoyl(4-OPh)}-[Gly(cPent)][d(aIle)][Lys(Et2)]S-{NH(propargyl)}) | -0.64 | -1.33 |  | 
O=C(NC1CCC1)c1ccc2nc(-c3cccc(NS(=O)(=O)NCCN4CCCCC4)c3)cn2c1 | 1.25 | -0.11 |  | 
CC(C)Oc1ccc(C=O)cc1 | -0.07 | 0.13 |  | 
O=C(NC[C@H](O)CN1CCc2ccccc2C1)c1cc(NC2COC2)ncn1 | -1.25 | 0.37 |  | 
O=C1C(P(=O)(O)O)CC(O)N1O (stereo unspecified) | 1.52 | -0.05 |  | 
O=C1C(P(=O)(O)O)CCCN1O (stereo unspecified) | -1.07 | 0.23 |  | 
C[C@]12CC[C@@H]3c4ccc(O)cc4C[C@@H](CCCCCCCCC[S+]([O-])CCCC(F)(F)C(F)(F)F)[C@H]3[C@@H]1CC[C@@H]2O (stereo partly specified) | 0 | -3.24 |  | 
Cc1ncccc1-c1cnc(NCc2c(F)ccc3c2CCO3)n2cnnc12 | -0.54 | -0.09 |  | 

SMILES | ΔTm (Peregrin (Homo sapiens)) [°C] | ΔTm [1] [°C] | ΔTm (Peregrin (Homo sapiens); tested as the 2H-labelled form) [°C] | ΔTm ([1]; tested as the 2H-labelled form) [°C]
O=C1c2ccccc2C(=O)c2oc(-c3cccnc3)nc21 | 2.45 | -0.95 |  | 
c1cncc(-c2cnn[nH]2)c1 | 0.36 | 0.33 |  | 
Cc1cc(/N=N/c2ccc(S(=O)(=O)NC3CCCC3)cc2)c(N)cc1O | 7.73 | 2.06 |  | 
Cc1cc(C)cc(Oc2ccc(CNC(=O)[C@H](C)N)cc2C)c1 | -1.68 | 0.01 |  | 
CC(C)N(CCCNC(=O)Nc1ccc(C(C)(C)C)cc1)C[C@H]1O[C@@H](n2ccc3c(N)ncnc32)[C@H](O)[C@@H]1O | -2.69 | 0.6 |  | 
CC1(C)Cn2nc(-c3ccc(F)cn3)c(-c3ccnc4[nH]ncc34)c2CO1 |  |  | -1.29 | 0.38
CCCN(CCC)c1ccc(C=O)cc1Br | -0.41 | 0.23 |  | 
CSc1cccc(Nc2ncc3cc(-c4c(Cl)cccc4Cl)c(=O)n(C)c3n2)c1 | -0.8 | -0.92 |  | 
C=Cc1cc(C(=O)Nc2ccc(C(=N)N)cc2)c(-c2ccc(C(=O)NCC3CC3)nc2C(=O)O)cc1OC | 2.91 | 0.02 |  | 
O=C(Nc1cc(C(F)F)ns1)Nc1cc(F)ncc1CO | 3.9 | -0.3 |  | 
Nc1ncnc2nc(-c3ccc(N4CCOCC4)nc3)cc(-c3cccc(Br)c3)c12 | -0.37 | 0.52 |  | 
COC(=O)[C@@H]1CC2=CC(=O)CC[C@]2(C)[C@@]23O[C@@H]2C[C@@]2(C)[C@@H](CC[C@@]24CCC(=O)O4)[C@H]13 | -1.07 | 1.06 |  | 
CN(Cc1ccccc1)c1ccc2cc(C(=O)O)c(=O)oc2c1 | 0.71 | 0.34 |  | 
Cc1cc(Cn2c(=O)n(Cc3cnc(C)s3)c(=O)c3cc(S(=O)(=O)NC4(C)CC4)ccc32)n(C)n1 | -1.12 | 0.47 |  | 
CCS(=O)(=O)Cc1cnc(Oc2ccc(F)cc2F)c(-c2cc(C)c3c(=O)[nH]ccn23)c1 | 2.87 | 0.35 |  | 
COc1ncc(C)c(-c2ccc3c(c2)[nH]c(=O)c2cnn([C@H]4CCOC4)c23)c1C | 0.86 | -0.58 |  | 
CCCn1/c(=N/C(=O)c2cccc(C(N)=O)c2)[nH]c2ccccc21 | -1.26 | 0.22 |  | 
C/C=C1\NC(=O)[C@H]2CSSCC/C=C/[C@H](CC(=O)N[C@H](C(C)C)C(=O)N2)OC(=O)[C@H](C(C)C)NC1=O | 0 | 0.1 |  | 
O=C(NO)C(c1ccc(-c2ncc(C(F)(F)F)cn2)cc1)c1ccccc1F (stereo unspecified) | -0.82 | -0.81 |  | 
C[C@@H]1CCC[C@H](C)N1NC(=O)c1ccc(Cl)c(S(N)(=O)=O)c1 | 0.5 | -0.13 |  | 

SMILES | ΔTm (Peregrin (Homo sapiens)) [°C] | ΔTm [1] [°C] | ΔTm (Peregrin (Homo sapiens); tested as the 2H-labelled form) [°C] | ΔTm ([1]; tested as the 2H-labelled form) [°C]
O=C(N(CCc1ccccc1)C1CCCCC1)n1ncc(-c2ccc(OC(F)(F)F)cc2)n1 | 1.62 | -0.24 |  | 
CCCC[C@@H](C=O)NC(=O)[C@H](CC(C)C)NC(=O)[C@H](CC(C)C)NC(C)=O (Ac-Leu-Leu-[Nle]-aldehyde) | -1.4 | 0.84 |  | 
COc1cc(C)[nH]c(=O)c1CNC(=O)c1c(C)n([C@H](C)C2CCOCC2)c2ccccc12 | -1.84 | 0.42 |  | 
O=c1[nH][nH]c(=O)c2cc(OCc3ccsc3)ccc12 | 3.18 | 0.19 |  | 
CN1CCN(c2nc(-c3ccc(C(=O)NC4(C(=O)NCC#N)CCCCC4)cc3)cs2)CC1 | -1.32 | 0.15 |  | 
O=C(CN1CCN(C(=O)c2ccco2)CC1)Nc1cc(C(F)(F)F)ccc1Cl | -0.04 | 0.27 |  | 
CN(CCOc1ccc(-c2ccc3c(c2)OCO3)cc1C(C)(C)C)CC(=O)O | 2.31 | -0.25 |  | 
CS(=O)(=O)N1CCN(C(=O)c2cnc3ccc(Cl)cc3c2-c2ccc(C3(C#N)CC3)cc2)CC1 | 1.84 | 0.34 |  | 
CN(CC[C@@H](Oc1ccc(-c2ccccc2)cc1)c1ccc(F)cc1)CC(=O)O | -0.36 | 0.18 |  | 
CC(=O)N1CCc2c(c(N3CCCc4cc(-c5cnn(C)c5)c(C(F)F)cc43)nn2C2CCOCC2)C1 | -1.44 | 0.45 |  | 
C=CCO/N=C1\c2ccccc2-c2nc(C#N)c(C#N)nc21 | 2.37 | 0.66 |  | 
CCCCNc1cc(C(=O)O)cc(S(N)(=O)=O)c1Oc1ccccc1 | 0.81 | -0.15 |  | 
Cc1nnn(C)c1-c1cnc2c3cc4cnn(C)c4cc3n([C@H](c3ccccc3)C3CCOCC3)c2c1 | -0.09 | -0.32 |  | 
COc1ccc(-c2ccc3c(c2)COC3=O)n2nc(C3(C(=O)OCC(C)C)CC3)nc12 | 0.76 | 0.71 |  | 
COc1cc2c(cc1-c1c(C)noc1C)[nH]c1nc(C)nc(Nc3cc(C4CC4)nn3C)c12 | 1.07 | -0.94 |  | 
CCCCCCCCCCCCCC(=S)NCCCC[C@H](NC(=O)OCc1ccccc1)C(=O)Nc1ccccc1 | 3.33 | 0.84 |  | 
O=C(O)CCNc1cc(N2CCc3ccccc3CC2)nc(-c2cccnc2)n1 | -1.01 | 0.9 |  | 
O=C1CCc2cc(OCCCCc3nnnn3C3CCCCC3)ccc2N1 | -1.16 | -0.38 |  | 
